Laboratory results: PubChem BioAssay AID330 (DTP/NCI, 2004)
Inconclusive results and toxic doses are left out. Rule for the calls: active = survival T/C of 150% or more; inactive = T/C below 125% in these data. Square brackets hold non-standard residues; d marks the D form. Peptide text beside a SMILES is read from it. Sar = CNCC(=O)O

Test system: P388 leukemia ip, CD2F1 mice, survival T/C
Assay: NCI In Vivo Anticancer Drug Screen. Data for tumor model P388 Leukemia (intraperitoneal) in CD2F1 (CDF1) mice
Details: endpoint: median survival time, higher = longer survival
Outline: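 Mice carrying the transplanted tumor received test compound or vehicle. Survival was recorded in each group, and the value is the treated-group measurement divided by that of the vehicle-treated control group.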

[1] = dose: 50.0 mg/kg/injection, schedule: Q01DX005 (ip), vehicle: saline
[2] = dose: 100.0 mg/kg/injection, schedule: Q01DX005 (ip), vehicle: saline
[3] = dose: 200.0 mg/kg/injection, schedule: Q01DX005 (ip), vehicle: saline
[4] = dose: 50.0 mg/kg/injection, schedule: Q01DX005 (ip), vehicle: Klucel (hydroxypropylcellulose) (HPC)
[5] = dose: 100.0 mg/kg/injection, schedule: Q01DX005 (ip), vehicle: Klucel (hydroxypropylcellulose) (HPC)
[6] = dose: 200.0 mg/kg/injection, schedule: Q01DX005 (ip), vehicle: Klucel (hydroxypropylcellulose) (HPC)
[7] = dose: 50.0 mg/kg/injection, schedule: Q01DX005 (ip), vehicle: saline with Tween-80
[8] = dose: 100.0 mg/kg/injection, schedule: Q01DX005 (ip), vehicle: saline with Tween-80
[9] = dose: 200.0 mg/kg/injection, schedule: Q01DX005 (ip), vehicle: saline with Tween-80
[10] = dose: 60.0 mg/kg/injection, schedule: Q01DX005 (ip), vehicle: saline
[11] = dose: 120.0 mg/kg/injection, schedule: Q01DX005 (ip), vehicle: saline
[12] = dose: 240.0 mg/kg/injection, schedule: Q01DX005 (ip), vehicle: saline

Measured: T/C

CCOC(OCC)C(C)(C)CNC
inactive: dose: 100.0 mg/kg/injection, schedule: Q01DX001 (ip), vehicle: saline sonified 109 % of control | dose: 200.0 mg/kg/injection, schedule: Q01DX001 (ip), vehicle: saline sonified 113 % of control

C1CCC2(CC1)C[Se]C2
inactive: dose: 7.5 mg/kg/injection, schedule: Q01DX009 (ip), vehicle: saline with Tween-80 108 % of control | dose: 15.0 mg/kg/injection, schedule: Q01DX009 (ip), vehicle: saline with Tween-80 113 % of control | dose: 30.0 mg/kg/injection, schedule: Q01DX009 (ip), vehicle: saline with Tween-80 105 % of control

CSCC1(C)OC(c2ccccc2)=Nc2ccccc21 (stereo not given)
inactive: dose: 100.0 mg/kg/injection, schedule: Q04DX002 (ip), vehicle: saline with Tween-80 97 % of control | dose: 200.0 mg/kg/injection, schedule: Q04DX002 (ip), vehicle: saline with Tween-80 98 % of control | dose: 400.0 mg/kg/injection, schedule: Q04DX002 (ip), vehicle: saline with Tween-80 106 % of control

COC1/C=C/OC2(C)Oc3c(C)c(O)c4c(O)c(c(C5OCCO5)c(O)c4c3C2=O)NC(=O)/C(C)=C\C=C\C(C)C(O)C(C)C(O)C(C)C(OC(C)=O)C1C (stereo not given)
inactive: dose: 25.0 mg/kg/injection, schedule: Q04DX003 (ip), vehicle: saline with Tween-80 96 % of control | dose: 50.0 mg/kg/injection, schedule: Q04DX003 (ip), vehicle: saline with Tween-80 96 % of control | dose: 100.0 mg/kg/injection, schedule: Q04DX003 (ip), vehicle: saline with Tween-80 96 % of control | dose: 200.0 mg/kg/injection, schedule: Q04DX003 (ip), vehicle: saline with Tween-80 104 % of control

CN(CC(=O)O)C(=O)CNC(=O)CN (H-Gly-Gly-[Sar]-OH)
inactive: [1] 91 % of control | [2] 92 % of control | [3] 91 % of control

CC1C(n2[nH]c(=O)n(C)c2=O)c2ccccc2-n2c(=O)n(C)c(=O)n21 (stereo not given)
inactive: [4] 96 % of control | [5] 101 % of control | [6] 103 % of control

O=C1CCC2OC3CCC(=O)N3CN12 (stereo not given)
inactive: [7] 97 % of control | [8] 98 % of control | [9] 98 % of control

CCN(CC)CCOc1ccc(Cl)c(Cl)c1
inactive: [7] 101 % of control | [8] 106 % of control | [9] 106 % of control

O=C(NCC1OC(n2cnc3c(=O)[nH]cnc32)C(O)C1O)c1ccc(S(=O)(=O)F)cc1 (stereo not given)
inactive: dose: 50.0 mg/kg/injection, schedule: Q01DX001 (ip), vehicle: saline with Tween-80 99 % of control | dose: 100.0 mg/kg/injection, schedule: Q01DX001 (ip), vehicle: saline with Tween-80 96 % of control | dose: 200.0 mg/kg/injection, schedule: Q01DX001 (ip), vehicle: saline with Tween-80 108 % of control

CN(C)C1CS(=O)(=O)OC2=C1CCOc1ccccc12 (stereo not given)
inactive: dose: 60.0 mg/kg/injection, schedule: Q01DX005 (ip), vehicle: Klucel (hydroxypropylcellulose) (HPC) 97 % of control | dose: 120.0 mg/kg/injection, schedule: Q01DX005 (ip), vehicle: Klucel (hydroxypropylcellulose) (HPC) 91 % of control | dose: 240.0 mg/kg/injection, schedule: Q01DX005 (ip), vehicle: Klucel (hydroxypropylcellulose) (HPC) 89 % of control

N=C(N)c1ccc(N=Nc2cc(N=Nc3ccccc3)ccc2O)cc1
inactive: dose: 25.0 mg/kg/injection, schedule: Q01DX005 (ip), vehicle: Klucel (hydroxypropylcellulose) (HPC) 109 % of control | [4] 113 % of control | [5] 115 % of control | [6] 115 % of control

O=C1C2C3CCC(O3)C2C(=O)N1CCO (stereo not given)
inactive: [10] 96 % of control | [11] 89 % of control | [12] 98 % of control

COc1c2ccoc2cc2oc(=O)ccc12
inactive: [4] 102 % of control | [5] 96 % of control | [6] 93 % of control

C#CCOC(=O)Nc1nc2ccc([N+](=O)[O-])cc2s1
inactive: dose: 50.0 mg/kg/injection, schedule: Q01DX009 (ip), vehicle: Klucel (hydroxypropylcellulose) (HPC) 101 % of control | dose: 100.0 mg/kg/injection, schedule: Q01DX009 (ip), vehicle: Klucel (hydroxypropylcellulose) (HPC) 99 % of control | dose: 200.0 mg/kg/injection, schedule: Q01DX009 (ip), vehicle: Klucel (hydroxypropylcellulose) (HPC) 92 % of control

COc1cc(-c2nnc(SCCN(C)C)o2)cc(OC)c1OC
inactive: dose: 50.0 mg/kg/injection, schedule: Q04DX002 (ip), vehicle: water 100 % of control | dose: 100.0 mg/kg/injection, schedule: Q04DX002 (ip), vehicle: water 101 % of control | dose: 200.0 mg/kg/injection, schedule: Q04DX002 (ip), vehicle: water 100 % of control

CC1CCCCN1c1cc2nc[nH]c(=O)c2cc1[N+](=O)[O-] (stereo not given)
inactive: dose: 100.0 mg/kg/injection, schedule: Q04DX003 (ip), vehicle: Klucel (hydroxypropylcellulose) (HPC) 108 % of control | dose: 200.0 mg/kg/injection, schedule: Q04DX003 (ip), vehicle: Klucel (hydroxypropylcellulose) (HPC) 99 % of control | dose: 400.0 mg/kg/injection, schedule: Q04DX003 (ip), vehicle: Klucel (hydroxypropylcellulose) (HPC) 100 % of control

CCC1(c2ccnc3ccccc23)C(=O)OC(C)(C)OC1=O
inactive: dose: 50.0 mg/kg/injection, schedule: Q01DX009 (ip), vehicle: distilled water + alcohol 99 % of control | dose: 100.0 mg/kg/injection, schedule: Q01DX009 (ip), vehicle: distilled water + alcohol 98 % of control | dose: 200.0 mg/kg/injection, schedule: Q01DX009 (ip), vehicle: distilled water + alcohol 87 % of control

Cc1cc(C)c(C2C(=O)c3ccccc3C2=O)c(C)c1
inactive: dose: 25.0 mg/kg/injection, schedule: Q01DX009 (ip), vehicle: saline with Tween-80 111 % of control | dose: 50.0 mg/kg/injection, schedule: Q01DX009 (ip), vehicle: saline with Tween-80 109 % of control | dose: 100.0 mg/kg/injection, schedule: Q01DX009 (ip), vehicle: saline with Tween-80 116 % of control | dose: 200.0 mg/kg/injection, schedule: Q01DX009 (ip), vehicle: saline with Tween-80 110 % of control

CCOC(=O)N1C=CC2(C=C1)CCCCCC2
inactive: dose: 37.5 mg/kg/injection, schedule: Q04DX003 (ip), vehicle: Klucel (hydroxypropylcellulose) (HPC) 101 % of control | dose: 75.0 mg/kg/injection, schedule: Q04DX003 (ip), vehicle: Klucel (hydroxypropylcellulose) (HPC) 98 % of control

O=C(Nc1cccc2c1CCCC2)c1cc2ccccc2cc1O
inactive: [7] 92 % of control | [8] 91 % of control | [9] 91 % of control

Cc1ncc(COP(=O)(O)O)c(C2NC(C(=O)O)CS2)c1O (stereo not given)
inactive: [1] 115 % of control | [10] 92 % of control | [2] 107 % of control | [11] 94 % of control | [3] 113 % of control | [12] 91 % of control

N#CSc1c(-c2ccccc2)c2c(N)[nH]c(=O)nc2[nH]c1=O
inactive: dose: 15.0 mg/kg/injection, schedule: Q01DX005 (ip), vehicle: saline with Tween-80 107 % of control | dose: 30.0 mg/kg/injection, schedule: Q01DX005 (ip), vehicle: saline with Tween-80 99 % of control | dose: 60.0 mg/kg/injection, schedule: Q01DX005 (ip), vehicle: saline with Tween-80 90 % of control
